Experimental findings from US20100105722A1, “Substituted 4,5,6,7-tetrahydrothienopyridines as KCNQ2/3 Modulators” (GRUENENTHAL GmbH, priority 2008, published 2010) are described below.

The target in this assay is T1, hKCNQ2/3 (Homo sapiens, UniProt O43525+O43526).
T1 construct: expressed in transfected cells; host or cells: CHO-K1
The assay is described as follows: Fluorescence assay using a voltage sensitive dye (fluorimetry). It counts as cell-based. As for the experimental part: Fluorescence Assay using a Voltage Sensitive Dye
Human CHO-K1 cells expressing KCNQ2/3 channels are cultivated adherently at 37° C., 5% CO2 and 95% humidity in cell culture bottles (e.g. 80 cm^2 TC flasks, Nunc) with DMEM-high glucose (Sigma Aldrich, D7777) including 10% FCS (PAN Biotech, e.g. 3302-P270521) or alternatively MEM Alpha Medium (1×, liquid, Invitrogen, #22571), 10% fetal calf serum (FCS) (Invitrogen, #10270-106, heat-inactivated) and the necessary selection antibiotics.
Before being sown out for the measurements, the cells are washed with a 1×DPBS buffer without Ca^2+/Mg^2+ (e.g. Invitrogen, #14190-094) and detached from the bottom of the culture vessel by means of Accutase (PAA Laboratories, #L11-007) (incubation with Accutase for 15 min at 37° C.). The cell count then present is determined using a CASY™ cell counter (TCC model, Schärfe System) in order subsequently to apply, depending on the density optimization for the individual cell line, 20,000-30,000 cells/well/100 μl of the described nutrient medium to 96-well measuring plates of the Corning™ CellBIND™ type (Flat Clear Bottom Black Polystyrene Microplates, #3340). Incubation is then carried out for one hour at room temperature, without gassing or adjusting the humidity, followed by incubation for 24 hours at 37° C., 5% CO2 and 95% humidity.
The voltage-sensitive fluorescent dye from the Membrane Potential Assay Kit (Red™ Bulk format part R8123 for FLIPR, MDS Analytical Technologies™) is prepared by dissolving the contents of a vessel Membrane Potential Assay Kit Red Component A in 200 ml of extracellular buffer (ES buffer, 120 mM NaCl, 1 mM KCl, 10 mM HEPES, 2 mM CaCl2, 2 mM MgCl2, 10 mM glucose; pH 7.4). After removal of the nutrient medium, the cells are washed with 200 μl of ES buffer, then covered with a layer of 100 μl of the dye solution prepared above and incubated for 45 min at room temperature with the exclusion of light.
The fluorescence measurements are carried out with a BMG Labtech FLUOstar™, BMG Labtech NOVOstar™ or BMG Labtech POLARstar™ instrument (525 nm excitation, 560 nm emission, Bottom Read mode). After incubation of the dye, 50 μl of the test substances in the desired concentrations, or 50 μl of ES buffer for control purposes, are introduced into separate cavities of the measuring plate and incubated for 30 min at room temperature while being shielded from light. The fluorescence intensity of the dye is then measured for 5 min and the fluorescence value F1 of each well is thus determined at a given, constant time. 15 μl of a […] KCl solution ([…]) are then added to each well. The change in fluorescence is subsequently measured until all the relevant measured values have been obtained (mainly 5-30 min). At a given time after KCl application, a fluorescence value F2 is determined, in this case at the time of the fluorescence peak.
For calculation, the fluorescence intensity F2 is compared with the fluorescence intensity F1, and the agonistic activity of the target compound on the potassium channel is determined therefrom. F2 and F1 are calculated as follows: […]
In order to determine whether a substance has agonistic activity, […]
for example, can be compared with […]
is determined by adding to the reaction batch only the buffer solution instead of the test substance, determining the value F1K of the fluorescence intensity, adding the potassium ions as described above, and measuring a value F2K of the fluorescence intensity. F2K and F1K are then calculated as follows: […]
A substance has an agonistic activity on the potassium channel when […]
Independently of the comparison of […]
it is possible to conclude that a target compound has agonistic activity if an increase in […]
is to be observed as the dosage of the target compound increases.
Calculations of EC50 and IC50 values are carried out with the aid of ‘Prism v4.0’ software (GraphPad Software™).

[1] abbreviates: CHO-K1, 10 μM, relative to retigabine = 100%, CHO-K1 cells expressing KCNQ2/3, Table 3, read-out: Fluorimetry % Efficacy @ 10 μM (reti-gabine = 100%).
[2] abbreviates: CHO-K1 cells expressing KCNQ2/3, Table 3.

Like-named read-outs stand apart in the source and are kept apart here.

In the case of `COc1ccc(NC(=O)CCC(=O)N2CCc3sccc3C2c2ccc(C)cc2)cc1` (stereo not drawn) [compound 46], the Emax at 10 µM under setting [1] is 35%.
The molecule `O=C(CCC(=O)N1CCc2sccc2C1c1ccccc1)NCc1cccc(C(F)(F)F)c1` (stereo not drawn) [compound 35] showed an EC50 under setting [2] of 572 nM.
Regarding `Cc1scc2c1CCN(C(=O)CCC(=O)NCc1cccc(C(F)(F)F)c1)C2c1ccccc1` (stereo not drawn) [compound 45], under setting [1], the Emax at 10 µM stood at 39%. Further, the EC50 under setting [2] came to 311 nM.
With `O=C(CCC(=O)N1CCc2sccc2C1c1ccccc1)NCCc1ccccc1` (stereo not drawn) [compound 25], the Emax at 10 µM under setting [1] was determined as 12%.
On to `O=C(CC(C(=O)N1CCc2sccc2C1c1ccccc1)c1ccccc1)NCc1cccc(C(F)(F)F)c1` (stereo not drawn) [compound 29], for which the Emax at 10 µM under setting [1] was -45%. The molecule further showed an IC50 under setting [2] of 133 nM.
`Cc1ccccc1C1c2ccsc2CCN1C(=O)CCC(=O)NCc1ccccc1C(F)(F)F` (stereo not drawn) [compound 256] registered an EC50 under setting [2] of 90 nM.
The same measure, in the same setting: the same measure for `O=C(CCC(=O)N1CCc2sccc2C1c1ccccc1)NCC1CCCCC1` (stereo not drawn) [compound 247]: 1440 nM.
Turning to `Cc1cccc(C2c3ccsc3CCN2C(=O)CCC(=O)NCc2ccccn2)c1` (stereo not drawn) [compound 54], the Emax at 10 µM under setting [1] came out at 19%.
Same read-out and setting: in the case of `Cc1ccc(C2c3ccsc3CCN2C(=O)CCC(=O)Nc2ccc3cnn(C)c3c2)cc1` (stereo not drawn) [compound 47] it was 37%.
Consider `O=C(CCC(=O)N1CCn2cccc2C1c1cccs1)NCc1cccc(C(F)(F)F)c1` (stereo not drawn) [Example No. 76 of WO 2008/046582, reference compound], for which the Emax at 10 µM (10 μM, relative to retigabine = 100%, comparison experiments table, read-out: Fluorimetry % Efficacy @ 10 μM (retigabine = 100%)) turned out to be 113%. Where the note is “comparison experiments table”, the response was half-maximal at 3290 nM (EC50).
On to `O=C(CCC(=O)N1CCc2sccc2C1c1ccccc1F)NCc1cccc(C(F)(F)F)c1` (stereo not drawn) [compound 6], for which the Emax at 10 µM under setting [1] came to 133%. Under setting [2], this molecule gave a concentration giving a half-maximal response (EC50) of 284 nM.
Under setting [2], `O=C(CCC(=O)N1CCc2sccc2C1c1ccccc1)NCc1cccc(C(F)(F)F)c1F` (stereo not drawn) [compound 40] displayed an EC50 of 156 nM.
Turning to `C[C@H](CC(=O)NCc1cccc(C(F)(F)F)c1)C(=O)N1CCc2sccc2C1c1ccccc1` (stereo partly drawn) [compound 34], the Emax at 10 µM under setting [1] came to 179%. In addition, it took 628 nM to reach a half-maximal effect under setting [2] (EC50).
The corresponding values for `C[C@H](CC(=O)N1CCc2sccc2C1c1ccccc1)C(=O)NCc1cccc(C(F)(F)F)c1` (stereo partly drawn) [compound 28] are 106% and 540 nM.
Molecule `Cc1ccccc1C1c2sccc2CCN1C(=O)CCC(=O)NCc1cccc(C(F)(F)F)c1` (stereo not drawn) [compound 274] yielded an EC50 under setting [2] of 323 nM.
Take `COc1ccccc1CNC(=O)CCC(=O)N1CCc2sccc2C1c1ccccc1` (stereo not drawn) [compound 14]: under setting [1], the Emax at 10 µM is -54%.
`Cc1cccc(C2c3ccsc3CCN2C(=O)CCC(=O)NCc2cccc(C(F)(F)F)c2)c1` (stereo not drawn) [compound 4]: the Emax at 10 µM under setting [1] stood at 102%. Moreover, a half-maximal response under setting [2] (EC50) required 456 nM.
For the molecule `O=C(CCC(=O)N1CCc2sccc2C1CCCc1ccccc1)NCc1cccc(C(F)(F)F)c1` (stereo not drawn) [compound 265], the EC50 under setting [2] was determined as 596 nM.
On the same count and under the same terms, in the case of `O=C(CCC(=O)N1CCc2sccc2C1c1ccccc1)N1CCc2c(cccc2C(F)(F)F)C1` (stereo not drawn) [compound 271] it was 431 nM.
Take `O=C(CCC(=O)N1CCc2sccc2C1c1ccccc1)NCc1ccc(C(F)(F)F)cc1` (stereo not drawn) [compound 13]: the Emax at 10 µM under setting [1] amounted to 51%. Moreover, the concentration for a half-maximal effect (EC50) under setting [2] was found to be 375 nM.
For `Cc1cc2c(s1)CCN(C(=O)CCC(=O)NCc1cccc(C(F)(F)F)c1)C2c1ccccc1` (stereo not drawn) [compound 10], in that order: 121% and 382 nM.
Take `Cc1ccccc1CNC(=O)CCC(=O)N1CCc2sccc2C1c1ccccc1` (stereo not drawn) [compound 26]: the Emax at 10 µM under setting [1] is -20%.
With `CCc1ccccc1C1c2ccsc2CCN1C(=O)CCC(=O)NCc1cccc(C(F)(F)F)c1` (stereo not drawn) [compound 251], the EC50 under setting [2] is 131 nM.
As for `Cc1ccc(C2c3ccsc3CCN2C(=O)CCC(=O)NCCc2ccccc2)cc1` (stereo not drawn) [compound 49], the Emax at 10 µM under setting [1] stood at 38%.
On to `O=C(NCc1cccc(C(F)(F)F)c1)C1CCCCC1C(=O)N1CCc2sccc2C1c1ccccc1` (stereo not drawn) [compound 32], for which the “Fluorimetry % Efficacy @ 10 μM (reti-gabine = 100%)” value (10 μM, relative to retigabine = 100%, CHO-K1 cells expressing KCNQ2/3, Table 3) amounted to 110%. For the same molecule, the EC50 under setting [2] amounted to 414 nM.
For the molecule `O=C(CC(C(=O)N1CCc2sccc2C1)c1ccccc1)NCc1cccc(C(F)(F)F)c1` (stereo not drawn) [compound 30], the Emax at 10 µM under setting [1] is -101%. The molecule also gave an IC50 under setting [2] of 212 nM.
`O=C(CCC(=O)N1CCc2sccc2C1c1ccccc1)NCCC1CCCCC1` (stereo not drawn) [compound 245] had a 50% effective concentration (EC50) under setting [2] of 690 nM.
For `Cc1ccc(C2c3ccsc3CCN2C(=O)CCC(=O)NCc2ccccc2)cc1` (stereo not drawn) [compound 48], the Emax at 10 µM under setting [1] is -15%.
Under setting [2], `CC(C)c1ccccc1C1c2ccsc2CCN1C(=O)CCC(=O)NCc1cccc(C(F)(F)F)c1` (stereo not drawn) [compound 252] yielded an EC50 of 1010 nM.
Regarding `Cc1cccc(C2c3ccsc3CCN2C(=O)CCC(=O)Nc2ccc3cnn(C)c3c2)c1` (stereo not drawn) [compound 53], under setting [1], the Emax at 10 µM was 28%.
On to `Cc1ccsc1C1c2ccsc2CCN1C(=O)CCC(=O)NCc1cccc(C(F)(F)F)c1` (stereo not drawn) [compound 254], for which, under setting [2], the EC50 amounted to 211 nM.
Same read-out and setting: the same measure for `CCCCC1c2sccc2CCN1C(=O)CCC(=O)NCc1cccc(C(F)(F)F)c1` (stereo not drawn) [compound 258]: 306 nM.
Regarding `CCCCC1c2ccsc2CCN1C(=O)CCC(=O)NCc1cccc(C(F)(F)F)c1` (stereo not drawn) [compound 23], the Emax at 10 µM under setting [1] came to 146%. Moreover, under setting [2], the response was half-maximal at 947 nM (EC50).
`O=C(CCC(=O)N1CCc2sccc2C1C1CCCC1)NCc1cccc(C(F)(F)F)c1` (stereo not drawn) [compound 263] yielded a concentration for a half-maximal effect (EC50) under setting [2] of 160 nM.
For `O=C(CCC(=O)N1CCc2sccc2C1C1CCCCC1)NCc1cccc(C(F)(F)F)c1` (stereo not drawn) [compound 21], the Emax at 10 µM under setting [1] worked out at 148%. For the same molecule, the concentration for a half-maximal effect (EC50) under setting [2] is 324 nM.
The corresponding values for `Cc1csc2c1C(c1ccccc1)N(C(=O)CCC(=O)NCc1cccc(C(F)(F)F)c1)CC2` (stereo not drawn) [compound 20] are 54% and 722 nM.
On to `Cc1cccc(CNC(=O)CCC(=O)N2CCc3sccc3C2c2ccccc2)c1` (stereo not drawn) [compound 19], for which the Emax at 10 µM under setting [1] is -45%.
Consider `O=C(CCC(=O)N1CCc2sccc2C1c1ccc(F)cc1)NCc1cccc(C(F)(F)F)c1` (stereo not drawn) [compound 7], for which the Emax at 10 µM under setting [1] stood at 132%. The half-maximal effective concentration (EC50) under setting [2] was 348 nM.
For `O=C(CCC(=O)N1CCc2ccsc2C1C1CCCCC1)NCc1cccc(C(F)(F)F)c1` (stereo not drawn) [compound 275], the EC50 under setting [2] was 962 nM.
Turning to `Cc1ccc(C2c3ccsc3CCN2C(=O)CCC(=O)NCc2ccncc2)cc1` (stereo not drawn) [compound 50], the Emax at 10 µM under setting [1] came to 10%.
On the same count and under the same terms, the same measure for `COc1ccc(CNC(=O)CCC(=O)N2CCc3sccc3C2c2ccccc2)cc1` (stereo not drawn) [compound 16]: 21%.
As for `O=C(CCC(=O)N1CCc2sccc2C1c1ccccc1)NCc1cccc(F)c1` (stereo not drawn) [compound 18], under setting [1], the Emax at 10 µM amounted to 11%. The molecule further displayed an EC50 under setting [2] of 2180 nM.
As to `O=C(CCC(=O)N1CCc2sccc2C1c1ccccc1)NCc1cccc(C(F)(F)F)c1` (stereo not drawn) [compound 36], the EC50 under setting [2] amounted to 707 nM.
`Cc1cccc(C2c3ccsc3CCN2C(=O)CCC(=O)Nc2cccc3nsnc23)c1` (stereo not drawn) [compound 52]: the Emax at 10 µM under setting [1] came to 15%.
On to `O=C(CCC(=O)N1CCc2ccsc2C1c1ccccc1)NCc1cccc(C(F)(F)F)c1` (stereo not drawn) [compound 9], for which the Emax at 10 µM under setting [1] worked out at 110%. Under setting [2], this molecule gave a half-maximal effective concentration (EC50) of 407 nM.
On to `O=C(CCC(=O)N1CCc2sccc2C1c1ccccc1)NCc1ccc(F)c(C(F)(F)F)c1` (stereo not drawn) [compound 250], for which the EC50 under setting [2] came out at 517 nM.
